The experiment addresses VHL (Homo sapiens (Human), UniProt P40337). Kind of experiment: VHL fluorescence polarization (FP) competition assay. Format: binding. A general note: Fluorescence polarisation rises when a labelled molecule tumbles more slowly, as on binding a larger partner.

One may read the IC50 as the concentration needed to halve the response being measured. A high value points to a need for much substance. With `Cc1ncsc1-c1ccc(CNC(=O)[C@@H]2C[C@@H](O)CN2C(=O)[C@@H](NC(=O)CCc2ccccc2)C(C)(C)C)cc1` [Example 44, (2S,4R)-1-((S)-3,3-dimethyl-2-(3-phenylpropanamido)butanoyl)-4-hydroxy-N-(4-(4-methylthiazol-5-yl)benzyl)pyrrolidine-2-carboxamide], the IC50 turned out to be 0.385 µM (1% in DMSO) and 0.465 µM (10% in DMSO). The matching figures for `Cc1ncsc1-c1ccc(CNC(=O)[C@@H]2C[C@@H](O)CN2C(=O)[C@H]([C@H](C)O)N2Cc3ccccc3C2=O)cc1` [Example 45, (2S,4R)-4-hydroxy-1-((2S,3S)-3-hydroxy-2-(1-oxoisoindolin-2-yl)butanoyl)-N-(4-(4-methylthiazol-5-yl)benzyl)pyrrolidine-2-carboxamide]: around 32 µM and 472 µM.

For the molecule `Cc1ncsc1-c1ccc(CNC(=O)[C@@H]2C[C@@H](O)CN2C(=O)C(C)(C)N2Cc3ccccc3C2=O)cc1` [Example 46, (2S,4R)-4-hydroxy-1-(2-methyl-2-(1-oxoisoindolin-2-yl)propanoyl)-N-(4-(4-methylthiazol-5-yl)benzyl)pyrrolidine-2-carboxamide], the IC50 is, setting by setting: (1% in DMSO) 19400 µM; (10% in DMSO) 5100 µM. For `Cc1ncsc1-c1ccc(CNC(=O)[C@@H]2C[C@@H](O)CN2C(=O)[C@H](C(C)C)N2Cc3cccc(C#N)c3C2=O)cc1` [Example 47, (2S,4R)-1-((S)-2-(7-cyano-1-oxoisoindolin-2-yl)-3-methylbutanoyl)-4-hydroxy-N-(4-(4-methylthiazol-5-yl)benzyl)pyrrolidine-2-carboxamide], in that order: 0.178 µM and 0.339 µM. On to `Cc1ncsc1-c1ccc(CNC(=O)[C@@H]2C[C@@H](O)CN2C(=O)[C@H](CS)N2Cc3ccccc3C2=O)cc1` [Example 48, (2S,4R)-4-hydroxy-1-((R)-3-mercapto-2-(1-oxoisoindolin-2-yl)propanoyl)-N-(4-(4-methylthiazol-5-yl)benzyl)pyrrolidine-2-carboxamide], for which the half-maximal inhibitory concentration (IC50) is, setting by setting: (1% in DMSO) 3.77 µM; (10% in DMSO) 4.7 µM. Take `Cc1ncsc1-c1ccc(CNC(=O)[C@@H]2C[C@@H](O)CN2C(=O)C2(N3Cc4ccccc4C3=O)CC2)cc1` [Example 49, (2S,4R)-4-hydroxy-N-(4-(4-methylthiazol-5-yl)benzyl)-1-(1-(1-oxoisoindolin-2-yl)cyclopropanecarbonyl)pyrrolidine-2-carboxamide]: the concentration for half-maximal inhibition (IC50) (10% in DMSO) was determined as 244 µM. Turning to `Cc1ncsc1-c1ccc(CNC(=O)[C@@H]2C[C@@H](O)CN2C(=O)C2(N3Cc4ccccc4C3=O)CCCC2)cc1` [Example 50, (2S,4R)-4-hydroxy-N-(4-(4-methylthiazol-5-yl)benzyl)-1-(1-(1-oxoisoindolin-2-yl)cyclopentanecarbonyl)pyrrolidine-2-carboxamide], where the note is “10% in DMSO”, the half-inhibitory concentration (IC50) was 235 µM. Molecule `Cc1ncsc1-c1ccc(CNC(=O)[C@@H]2C[C@@H](O)CN2C(=O)[C@@H](NC(=O)CCC(C)C)[C@H](C)O)cc1` [Example 51, (2S,4R)-4-hydroxy-1-((2S,3S)-3-hydroxy-2-(4-methylpentanamido)butanoyl)-N-(4-(4-methylthiazol-5-yl)benzyl)pyrrolidine-2-carboxamide] returned an IC50 (1% in DMSO) of 56.6 µM and an IC50 (10% in DMSO) of 1520 µM. The matching figures for `Cc1ncsc1-c1ccc(CNC(=O)[C@@H]2C[C@@H](O)CN2C(=O)[C@@H](NC(=O)CCC(C)C)c2cccs2)cc1` [Example 52, (2S,4R)-4-hydroxy-1-((R)-2-(4-methylpentanamido)-2-(thiophen-2-yl)acetyl)-N-(4-(4-methylthiazol-5-yl)benzyl)pyrrolidine-2-carboxamide]: 2.48 µM and 3.73 µM.

Consider `COCC#Cc1ccc2c(c1)CN([C@H](C(=O)N1C[C@H](O)C[C@H]1C(=O)NCc1ccc(-c3scnc3C)cc1)C(C)C)C2=O` [Example 53, (2S,4R)-4-hydroxy-1-((S)-2-(5-(3-methoxyprop-1-ynyl)-1-oxoisoindolin-2-yl)-3-methylbutanoyl)-N-(4-(4-methylthiazol-5-yl)benzyl)pyrrolidine-2-carboxamide], for which the IC50 came to 0.474 µM (1% in DMSO) and 1.03 µM (10% in DMSO).

With `Cc1ncsc1-c1ccc(CNC(=O)[C@@H]2C[C@@H](O)CN2C(=O)C2(N3Cc4ccccc4C3=O)CCCCC2)cc1` [Example 54, (2S,4R)-4-hydroxy-N-(4-(4-methylthiazol-5-yl)benzyl)-1-(1-(1-oxoisoindolin-2-yl)cyclohexanecarbonyl)pyrrolidine-2-carboxamide], the IC50 reads like this: (1% in DMSO) 0.834 µM; (10% in DMSO) 1.21 µM.

As for `Cc1ncsc1-c1ccc(CNC(=O)[C@@H]2C[C@@H](O)CN2C(=O)C2(N3Cc4ccccc4C3=O)CCC2)cc1` [Example 55, (2S,4R)-4-hydroxy-N-(4-(4-methylthiazol-5-yl)benzyl)-1-(1-(1-oxoisoindolin-2-yl)cyclobutanecarbonyl)pyrrolidine-2-carboxamide], the IC50 reads like this: (1% in DMSO) 115 µM; (10% in DMSO) 461 µM. Take `Cc1ncsc1-c1ccc(CNC(=O)[C@@H]2C[C@@H](O)CN2C(=O)[C@@H](NC(=O)CCC(C)C)C2CCCCC2)cc1` [Example 56, (2S,4R)-1-((S)-2-cyclohexyl-2-(4-methylpentanamido)acetyl)-4-hydroxy-N-(4-(4-methylthiazol-5-yl)benzyl)pyrrolidine-2-carboxamide]: the half-inhibitory concentration (IC50) was 0.878 µM (1% in DMSO) and 1.48 µM (10% in DMSO). The matching figures for `COCCCc1ccc2c(c1)CN([C@H](C(=O)N1C[C@H](O)C[C@H]1C(=O)NCc1ccc(-c3scnc3C)cc1)C(C)C)C2=O` [Example 57, (2S,4R)-4-hydroxy-1-((S)-2-(5-(3-methoxypropyl)-1-oxoisoindolin-2-yl)-3-methylbutanoyl)-N-(4-(4-methylthiazol-5-yl)benzyl)pyrrolidine-2-carboxamide]: 0.717 µM and 1.41 µM.

`Cc1ncsc1-c1ccc(CNC(=O)[C@@H]2C[C@@H](O)CN2C(=O)[C@H](c2cccs2)N2Cc3ccccc3C2=O)cc1` [Example 58, (2S,4R)-4-hydroxy-N-(4-(4-methylthiazol-5-yl)benzyl)-1-((R)-2-(1-oxoisoindolin-2-yl)-2-(thiophen-2-yl)acetyl)pyrrolidine-2-carboxamide] gave an IC50 (1% in DMSO) of 32.6 µM and an IC50 (10% in DMSO) of 26.2 µM. For the molecule `Cc1ncsc1-c1ccc(CNC(=O)[C@@H]2C[C@@H](O)CN2C(=O)[C@H](CS)NC(=O)CCC(C)C)cc1` [Example 59, (2S,4R)-4-hydroxy-1-((R)-3-mercapto-2-(4-methylpentanamido)propanoyl)-N-(4-(4-methylthiazol-5-yl)benzyl)pyrrolidine-2-carboxamide], the IC50 turned out to be 1.42 µM (1% in DMSO) and 3.69 µM (10% in DMSO). Take `Cc1ncsc1-c1ccc(CNC(=O)[C@H]2C[C@H](O)CN2C(=O)[C@@H](CSSC[C@H](NC(=O)CCC(C)C)C(=O)N2C[C@H](O)C[C@H]2C(=O)NCc2ccc(-c3scnc3C)cc2)NC(=O)CCC(C)C)cc1` [Example 60, (2S,4R)-4-hydroxy-1-((R)-3-(((S)-3-((2R,4S)-4-hydroxy-2-(4-(4-methylthiazol-5-yl)benzylcarbamoyl)pyrrolidin-1-yl)-2-(4-methylpentanamido)-3-oxopropyl)disulfanyl)-2-(4-methylpentanamido)propanoyl)-N-(4-(4-methylthiazol-5-yl)benzyl)pyrrolidine-2-carboxamide]: the 50% inhibitory concentration (IC50) (1% in DMSO) worked out at 1.45 µM and the IC50 (10% in DMSO) turned out to be 0.293 µM. With `Cc1ncsc1-c1ccc(CNC(=O)[C@@H]2CC(=O)CN2C(=O)[C@H](C(C)C)N2Cc3ccccc3C2=O)cc1` [Example 61, (S)-1-((S)-3-methyl-2-(1-oxoisoindolin-2-yl)butanoyl)-N-(4-(4-methylthiazol-5-yl)benzyl)-4-oxopyrrolidine-2-carboxamide], the “VHL FP Assay IC50” value by setting is: (1% in DMSO) “Not Active”; (10% in DMSO) “Not Active”.

Take `Cc1ncsc1-c1ccc(CNC(=O)[C@@H]2C[C@](C)(O)CN2C(=O)[C@H](C(C)C)N2Cc3ccccc3C2=O)cc1` [Example 62, (2S,4S)-4-hydroxy-4-methyl-1-((S)-3-methyl-2-(1-oxoisoindolin-2-yl)butanoyl)-N-(4-(4-methylthiazol-5-yl)benzyl)pyrrolidine-2-carboxamide]: the “VHL FP Assay IC50” value reads like this: (1% in DMSO) “Not Active”; (10% in DMSO) “Not Active”. As to `COc1cccc(C(=O)N2C[C@H](O)C[C@H]2C(=O)NCc2ccc(-c3scnc3C)cc2)c1` [Example 63, (2S,4R)-4-hydroxy-1-(3-methoxybenzoyl)-N-(4-(4-methylthiazol-5-yl)benzyl)pyrrolidine-2-carboxamide], the 50% inhibitory concentration (IC50) is 58.4 µM (1% in DMSO) and 53 µM (10% in DMSO). With `Cc1ncsc1-c1ccc(CNC(=O)[C@@H]2C[C@@H](O)CN2C(=O)c2ccccc2)cc1` [Example 64, (2S,4R)-1-benzoyl-4-hydroxy-N-(4-(4-methylthiazol-5-yl)benzyl)pyrrolidine-2-carboxamide], the concentration for half-maximal inhibition (IC50) (1% in DMSO) was found to be 16.8 µM and the IC50 (10% in DMSO) was found to be 30.5 µM.

For `Cc1ncsc1-c1ccc(CNC(=O)[C@@H]2C[C@@H](O)CN2C(=O)[C@@H](N2Cc3ccccc3C2=O)C(C)(C)C)cc1` [Example 65, (2S,4R)-1-((S)-3,3-dimethyl-2-(1-oxoisoindolin-2-yl)butanoyl)-4-hydroxy-N-(4-(4-methylthiazol-5-yl)benzyl)pyrrolidine-2-carboxamide], the half-maximal inhibitory concentration (IC50) reads like this: (1% in DMSO) 0.631 µM; (10% in DMSO) 0.578 µM.

As to `COc1cccc(C(=O)N2C[C@H](O)CC2(C)C(=O)NCc2ccc(-c3scnc3C)cc2)c1` (stereo partly drawn) [Example 66, (4R)-4-hydroxy-1-(3-methoxybenzoyl)-2-methyl-N-(4-(4-methylthiazol-5-yl)benzyl)pyrrolidine-2-carboxamide], the “VHL FP Assay IC50” value is recorded as “Not Active” (1% in DMSO) and “Not Active” (10% in DMSO). As for `CCC1(C(=O)NCc2ccc(-c3scnc3C)cc2)C[C@@H](O)CN1C(=O)c1cccc(OC)c1` (stereo partly drawn) [Example 67, (4R)-2-ethyl-4-hydroxy-1-(3-methoxybenzoyl)-N-(4-(4-methylthiazol-5-yl)benzyl)pyrrolidine-2-carboxamide], the “VHL FP Assay IC50” value reads like this: (1% in DMSO) “Not Active”; (10% in DMSO) “Not Active”.

`Cc1ncsc1-c1ccc(CNC(=O)[C@@H]2C[C@@H](O)CN2C(=O)[C@H](C(C)C)N2Cc3c(Cl)cccc3C2=O)cc1` [Example 68]: the 50% inhibitory concentration (IC50) (1% in DMSO) was 0.972 µM and the half-maximal inhibitory concentration (IC50) (10% in DMSO) was 0.668 µM.

Source of the values: US10730870B2, “Compounds and methods for the enhanced degradation of targeted proteins” (Arvinas, Inc., priority 2015, dated 2020).
